Measurements from the Kinase Knowledgebase extract (Sharma et al. 2016).

molecular target: EGFR (UniProt P00533); test: Inhibition of EGFR Kinase Activity
Sequence (P00533 whole entry, looked up): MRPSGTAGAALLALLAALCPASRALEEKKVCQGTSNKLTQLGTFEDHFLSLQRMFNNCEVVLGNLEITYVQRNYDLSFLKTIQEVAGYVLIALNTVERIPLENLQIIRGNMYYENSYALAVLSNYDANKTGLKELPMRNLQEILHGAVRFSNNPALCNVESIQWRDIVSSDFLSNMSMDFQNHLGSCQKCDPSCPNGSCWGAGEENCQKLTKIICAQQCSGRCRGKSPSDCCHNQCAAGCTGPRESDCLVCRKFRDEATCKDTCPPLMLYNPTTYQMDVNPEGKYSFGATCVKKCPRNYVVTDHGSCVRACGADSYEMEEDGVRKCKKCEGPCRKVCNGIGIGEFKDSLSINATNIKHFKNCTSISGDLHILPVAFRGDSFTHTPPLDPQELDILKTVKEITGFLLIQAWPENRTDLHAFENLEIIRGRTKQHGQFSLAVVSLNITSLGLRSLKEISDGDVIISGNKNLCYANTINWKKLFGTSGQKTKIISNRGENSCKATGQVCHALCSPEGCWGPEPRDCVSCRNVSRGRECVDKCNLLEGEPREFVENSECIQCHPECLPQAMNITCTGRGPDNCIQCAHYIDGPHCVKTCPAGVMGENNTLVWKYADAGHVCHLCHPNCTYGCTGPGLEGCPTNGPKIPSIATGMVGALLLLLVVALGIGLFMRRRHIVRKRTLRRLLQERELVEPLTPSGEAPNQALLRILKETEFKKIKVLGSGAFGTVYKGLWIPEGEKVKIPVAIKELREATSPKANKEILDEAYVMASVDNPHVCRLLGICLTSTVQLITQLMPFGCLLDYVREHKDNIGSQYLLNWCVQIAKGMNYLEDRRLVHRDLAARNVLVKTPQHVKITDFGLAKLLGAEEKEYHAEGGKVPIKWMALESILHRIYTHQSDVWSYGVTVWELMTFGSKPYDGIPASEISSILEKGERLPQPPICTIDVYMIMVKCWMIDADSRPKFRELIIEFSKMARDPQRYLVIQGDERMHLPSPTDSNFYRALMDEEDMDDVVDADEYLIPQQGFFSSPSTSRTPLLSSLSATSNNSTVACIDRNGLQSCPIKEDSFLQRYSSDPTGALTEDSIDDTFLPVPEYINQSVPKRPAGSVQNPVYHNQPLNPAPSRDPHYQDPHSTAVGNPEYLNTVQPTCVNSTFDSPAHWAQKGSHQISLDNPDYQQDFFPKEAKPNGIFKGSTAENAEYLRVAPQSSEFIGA

SMILES	IC50
C=CC(=O)Nc1cccc(Nc2ncnc(Nc3ccc(OCc4ccccc4)c(Cl)c3)n2)c1	< 50 µM
C=CCN(c1ccc(OCC)c(OCC)c1)c1ncnc(Nc2cccc(NC(=O)C=C)c2)n1	< 50 µM
CC#CC(=O)Nc1cc(Nc2ncnc(Nc3ccc(OCc4ccccc4)c(Cl)c3)n2)ccc1OCCCN1CCOCC1	< 50 µM
C=CC(=O)Nc1cccc(Nc2ncnc(NN3CCCc4c(Cl)cccc43)n2)c1	< 50 µM
CC#CC(=O)Nc1cccc(Nc2ncnc(Nc3ccc(OCc4ccccc4)cc3)n2)c1	< 50 µM
C=CC(=O)Nc1ccc(Nc2ncnc(Nc3ccc4c(cnn4Cc4ccccc4)c3)n2)cc1OC	< 50 µM
CC#CC(=O)Nc1cccc(Nc2ncnc(N(CC)c3cccc(C)c3)n2)c1	< 50 µM
CC#CC(=O)Nc1cc(Nc2ncnc(Nc3ccc4c(cnn4Cc4ccccc4)c3)n2)ccc1OCCCN1CCOCC1	< 50 µM
C=CC(=O)N(OCCCC1CCN(C)CC1)c1cccc(Nc2ncnc(NN3CCCc4ccc(Cl)cc43)n2)c1	< 50 µM
C=CCN(c1ccc(OCCC)c(OCCC)c1)c1ncnc(Nc2ccc(NC(=O)C=C)cc2)n1	< 50 µM
C=CC(=O)Nc1cc(Nc2ncnc(Nc3cccc(Cl)c3)n2)ccc1OCCCC1CCN(C)CC1	< 50 µM
CC#CC(=O)Nc1cccc(Nc2ncnc(N(CC)C3CC3c3ccccc3)n2)c1 (stereo unspecified)	< 50 µM
C=CC(=O)Nc1cccc(Nc2ncnc(N(CC)c3cc(Cl)cc4ccccc34)n2)c1	< 50 µM
C=CCN(c1ncnc(Nc2cccc(NC(=O)C#CC)c2)n1)c1cccc2ccccc12	< 50 µM
C=CC(=O)Nc1cccc(Nc2ncnc(N(CC)c3ccc(OCCO)cc3)n2)c1	< 50 µM
C=CC(=O)Nc1ccc(Nc2ncnc(N(C)c3cccc(CC(=O)OC)c3)n2)cc1	< 50 µM
C#CCC(=O)Nc1cccc(Nc2ncnc(NN3CCCc4cc(C)ccc43)n2)c1	< 50 µM
CC#CC(=O)Nc1cccc(Nc2ncnc(N(CC)c3ccc(OCC)c(OCC)c3)n2)c1	< 50 µM
C=CC(=O)Nc1ccc(Nc2ncnc(Nc3ccc(OCCO)cc3)n2)cc1	< 50 µM
C=CC(=O)Nc1cc(Nc2ncnc(N(C)c3cccc(Cl)c3)n2)ccc1OCCCC1CCN(C)CC1	< 50 µM
C=CCN(c1ncnc(Nc2cccc(NC(=O)C#CC)c2)n1)C1CC1c1ccc(Cl)cc1 (stereo unspecified)	< 50 µM
C=CCN(c1ccc(F)c(Cl)c1)c1ncnc(Nc2ccc(NC(=O)C=C)cc2)n1	< 50 µM

SMILES	IC50
CC#CC(=O)Nc1cccc(Nc2ncnc(Nc3ccc(OCc4ccccc4)c(Cl)c3)n2)c1	< 50 µM
C=CC(=O)Nc1cccc(Nc2ncnc(Nc3ccc(OCCO)cc3)n2)c1	< 50 µM
C=CC(=O)Nc1ccc(Nc2ncnc(Nn3c(=O)[nH]c4ccccc43)n2)cc1	< 50 µM
C=CC(=O)Nc1ccc(Nc2ncnc(N(CC)c3ccc(OCCOC)c(OC)c3)n2)cc1	< 50 µM
C=CC(=O)Nc1cc(Nc2ncnc(N(C)c3ccc4c(cnn4Cc4ccccc4)c3)n2)ccc1OC	< 50 µM
C=CC(=O)Nc1ccc(Nc2ncnc(N(CC)c3cc(Cl)cc4ccccc34)n2)cc1	< 50 µM
CC#CC(=O)Nc1cccc(Nc2ncnc(NC3CC3c3ccc(Cl)cc3)n2)c1 (stereo unspecified)	< 50 µM
C=CCN(c1ncnc(Nc2ccc(NC(=O)C=C)cc2)n1)c1cccc2ccccc12	< 50 µM
C=CC(=O)N(CCCN1CCOCC1)c1cccc(Nc2ncnc(Nc3cccc4ccccc34)n2)c1	< 50 µM
C=CC(=O)Nc1cccc(Nc2ncnc(NC3CC3c3ccccc3)n2)c1 (stereo unspecified)	< 50 µM
C=CC(=O)Nc1ccc(Nc2ncnc(N(C)C3CC3c3ccccc3)n2)cc1 (stereo unspecified)	< 50 µM
CC#CC(=O)Nc1cccc(Nc2ncnc(N(C)c3ccc(OCc4ccccc4)c(Cl)c3)n2)c1	< 50 µM
C=CC(=O)Nc1cccc(Nc2ncnc(N(CC)c3cccc(C(N)=O)c3)n2)c1	< 50 µM
CC#CC(=O)Nc1cccc(Nc2ncnc(N(CC)c3ccc(OCCOC)c(OC)c3)n2)c1	< 50 µM
CC#CC(=O)Nc1cccc(Nc2ncnc(N(CC)c3cc(OC)c(OC)c(OCCN4CCOCC4)c3)n2)c1	< 50 µM
CC#CC(=O)Nc1cccc(Nc2ncnc(Nc3cccc4ccccc34)n2)c1	< 50 µM
C=CCN(c1ccc(C(=O)OC)cc1)c1ncnc(Nc2cccc(NC(=O)C#CC)c2)n1	< 50 µM
C=CC(=O)Nc1cccc(Nc2ncnc(NN3CCCc4cc(Cl)ccc43)n2)c1	< 50 µM
C=CC(=O)Nc1cc(Nc2ncnc(N(C)c3cccc(Cl)c3)n2)ccc1OCCCN1CCOCC1	< 50 µM
C=CC(=O)N(CCCN1CCOCC1)c1cccc(Nc2ncnc(Nc3cccc(Cl)c3)n2)c1	< 50 µM
C=CC(=O)N(CCCN1CCOCC1)c1cccc(Nc2ncnc(N(C)c3cccc(Cl)c3)n2)c1	< 50 µM
C#CCC(=O)Nc1cccc(Nc2ncnc(NN3CCCc4c(Cl)cccc43)n2)c1	< 50 µM

SMILES	IC50
C=CCN(c1ccc(OC)c(OCCOC)c1)c1ncnc(Nc2cccc(NC(=O)C=C)c2)n1	< 50 µM
CC#CC(=O)Nc1cccc(Nc2ncnc(N(CC)C3CC3c3ccc(Cl)cc3)n2)c1 (stereo unspecified)	< 50 µM
CC#CC(=O)Nc1cccc(Nc2ncnc(Nc3ccc4NN(=Cc4c3)Cc5ccccn5)n2)c1	< 50 µM
C=CC(=O)Nc1ccc(Nc2ncnc(N(CC)c3ccc(OC)c(OCCOC)c3)n2)cc1	< 50 µM
CC#CC(=O)Nc1cccc(Nc2ncnc(Nc3ccc(F)c(Cl)c3)n2)c1	< 50 µM
C=CC(=O)Nc1cccc(Nc2ncnc(Nc3ccc(S(=O)(=O)c4ccccc4)cc3)n2)c1	< 50 µM
C=CC(=O)Nc1cccc(Nc2ncnc(Nc3ccc4nc(Cc5ccccc5)[nH]c4c3)n2)c1	< 50 µM
CC#CC(=O)Nc1cccc(Nc2ncnc(N(C)c3cccc4ccccc34)n2)c1	< 50 µM
CC#CC(=O)Nc1cccc(Nc2ncnc(N(C)c3ccc(OCc4ccccc4)cc3)n2)c1	< 50 µM
C=CC(=O)Nc1ccc(Nc2ncnc(N(C)c3cc(Cl)cc4ccccc34)n2)cc1	< 50 µM
CC#CC(=O)Nc1cc(Nc2ncnc(Nc3ccc4c(cnn4Cc4ccccc4)c3)n2)ccc1OC	< 50 µM
C=CC(=O)Nc1ccc(Nc2ncnc(NC3CC3c3ccccc3)n2)cc1 (stereo unspecified)	< 50 µM
C=CC(=O)Nc1cccc(Nc2ncnc(N(C)c3ccc4c(cnn4Cc4ccccn4)c3)n2)c1	< 50 µM
CC#CC(=O)Nc1cccc(Nc2ncnc(N(CC)c3cccc4ccccc34)n2)c1	< 50 µM
C=CC(=O)Nc1ccc(Nc2ncnc(Nc3ccc(F)c(Cl)c3)n2)cc1	< 50 µM
CC#CC(=O)Nc1cccc(Nc2ncnc(N(CC)n3c(=O)n(C(=O)C(C)(C)C)c4ccccc43)n2)c1	< 50 µM
C=CC(=O)Nc1cccc(Nc2ncnc(N(CC)n3c(=O)[nH]c4ccccc43)n2)c1	< 50 µM
C=CCN(c1cc(OC)c(OC)c(OCCN2CCOCC2)c1)c1ncnc(Nc2cccc(NC(=O)C#CC)c2)n1	< 50 µM
CN(c1ccc2NN(=Cc2c1)Cc3ccccn3)c4ncnc(Nc5ccc(NC(=O)C=C)cc5)n4	< 50 µM
C#CCC(=O)Nc1cccc(Nc2ncnc(NN3CCCc4cc(Cl)ccc43)n2)c1	< 50 µM
CC#CC(=O)Nc1cccc(Nc2ncnc(N(C)c3cccc(S(=O)(=O)c4ccc([N+](=O)[O-])cc4)c3)n2)c1	< 50 µM
C=CCN(c1ccc(OCCOC)c(OC)c1)c1ncnc(Nc2ccc(NC(=O)C=C)cc2)n1	< 50 µM

Further lines, results first:

IC50	SMILES
< 50 µM	C=CC(=O)Nc1cccc(Nc2ncnc(N(C)C3CC3c3ccccc3)n2)c1 (stereo unspecified)
< 50 µM	CC#CC(=O)Nc1cccc(Nc2ncnc(N(CC)c3ccc(F)c(Cl)c3)n2)c1
< 50 µM	C=CC(=O)Nc1cccc(Nc2ncnc(N(CC)C3CC3c3ccc(Cl)cc3)n2)c1 (stereo unspecified)
< 50 µM	CC#CC(=O)Nc1cc(Nc2ncnc(N(C)c3ccc4c(ccn4Cc4ccccc4)c3)n2)ccc1OCCCN1CCOCC1
< 50 µM	C=CCN(c1ncnc(Nc2cccc(NC(=O)C=C)c2)n1)c1cc(Cl)cc2ccccc12
< 50 µM	CC#CC(=O)Nc1cccc(Nc2ncnc(N(CC)c3ccc(OC)c(OC)c3)n2)c1
< 50 µM	C=CCN(c1ncnc(Nc2ccc(NC(=O)C=C)cc2)n1)C1CC1c1ccccc1 (stereo unspecified)
< 50 µM	C=CC(=O)Nc1ccc(Nc2ncnc(N(CC)n3c(=O)n(C(=O)C(C)(C)C)c4ccccc43)n2)cc1
< 50 µM	C=CC(=O)Nc1cccc(Nc2ncnc(N(CC)c3cccc4ccccc34)n2)c1
< 50 µM	C/C=C/C(=O)Nc1cccc(Nc2ncnc(NC3CC3c3ccccc3)n2)c1 (stereo unspecified)
< 50 µM	CC#CC(=O)Nc1cccc(Nc2ncnc(N(CC)c3ccc(C(=O)OC)cc3)n2)c1
< 50 µM	C=CC(=O)Nc1cccc(Nc2ncnc(N(CC)c3ccc(OC)c(OC)c3)n2)c1
< 50 µM	CC#CC(=O)Nc1cc(Nc2ncnc(Nc3cccc(Cl)c3)n2)ccc1OCCCC1CCN(C)CC1
< 50 µM	C=CC(=O)N(CCCN1CCOCC1)c1cccc(Nc2ncnc(NC3CC3c3ccc(Cl)cc3)n2)c1 (stereo unspecified)
< 50 µM	C=CC(=O)Nc1cccc(Nc2ncnc(N(C)c3ccc(OCCO)cc3)n2)c1
< 50 µM	CC#CC(=O)Nc1cccc(Nc2ncnc(Nc3cccc(C)c3)n2)c1
< 50 µM	C=CC(=O)n1ncc2cc(Nc3ncnc(Nc4ccc5c(cnn5Cc5ccccc5)c4)n3)ccc21
< 50 µM	C=CC(=O)N1CCc2ccc(Nc3ncnc(Nc4ccc5c(cnn5Cc5ccccc5)c4)n3)cc21
< 50 µM	C=CCN(c1ccc(OC)c(OCCOC)c1)c1ncnc(Nc2ccc(NC(=O)C=C)cc2)n1
< 50 µM	C=CCN(c1ccc(OCCO)cc1)c1ncnc(Nc2ccc(NC(=O)C=C)cc2)n1
< 50 µM	C=CCN(c1ccc(OCc2ccccc2)cc1)c1ncnc(Nc2cccc(NC(=O)C#CC)c2)n1
< 50 µM	CC#CC(=O)Nc1cccc(Nc2ncnc(N(C)n3c(=O)n(C(=O)C(C)(C)C)c4ccccc43)n2)c1
< 50 µM	C=CCN(c1ncnc(Nc2cccc(NC(=O)C#CC)c2)n1)c1cc(Cl)cc2ccccc12
< 50 µM	CC#CC(=O)Nc1cccc(Nc2ncnc(Nc3ccc(OC)c(OCCOC)c3)n2)c1
< 50 µM	CC#CC(=O)Nc1cc(Nc2ncnc(N(C)c3ccc4c(cnn4Cc4ccccc4)c3)n2)ccc1OCCCC1CCN(C)CC1
< 50 µM	C=CC(=O)Nc1cccc(Nc2ncnc(Nc3ccc(OCc4ccc(F)c(F)c4)c(F)c3)n2)c1
< 50 µM	C=CC(=O)Nc1cccc(Nc2ncnc(N(CC)c3cccc(C)c3)n2)c1
< 50 µM	C=CC(=O)N(CCCN1CCOCC1)c1cccc(Nc2ncnc(Nc3ccc(OCc4ccccc4)cc3)n2)c1
< 50 µM	CC#CC(=O)Nc1cc(Nc2ncnc(Nc3ccc4c(ccn4Cc4ccccc4)c3)n2)ccc1OCCCC1CCN(C)CC1
< 50 µM	C=CC(=O)Nc1cccc(Nc2ncnc(N(CC)c3ccc(C(=O)OC)cc3)n2)c1
